Laboratory results as given in patent US20260041653A1, “AN HDAC INHIBITOR FOR TREATING CANCER WITH A MODIFIED STK11 ACTIVITY OR EXPRESSION” (Tango Therapeutics, Inc., priority 2022, published 2026).
Marks after values point to notes of the source that are not given here.

Tests used:
[1] = target: T1, HDAC10 (Homo sapiens, UniProt Q969S8); assay: Cellular NanoBRET assay, HDAC10; type: cell-based
T1 construct: expressed in transfected cells

[2] = Caverage in mice with STK11-deleted MC38 tumors; type: in vivo, mouse; details: doses used in FIG. 12B and 12C

T1 sequence (Q969S8 whole entry): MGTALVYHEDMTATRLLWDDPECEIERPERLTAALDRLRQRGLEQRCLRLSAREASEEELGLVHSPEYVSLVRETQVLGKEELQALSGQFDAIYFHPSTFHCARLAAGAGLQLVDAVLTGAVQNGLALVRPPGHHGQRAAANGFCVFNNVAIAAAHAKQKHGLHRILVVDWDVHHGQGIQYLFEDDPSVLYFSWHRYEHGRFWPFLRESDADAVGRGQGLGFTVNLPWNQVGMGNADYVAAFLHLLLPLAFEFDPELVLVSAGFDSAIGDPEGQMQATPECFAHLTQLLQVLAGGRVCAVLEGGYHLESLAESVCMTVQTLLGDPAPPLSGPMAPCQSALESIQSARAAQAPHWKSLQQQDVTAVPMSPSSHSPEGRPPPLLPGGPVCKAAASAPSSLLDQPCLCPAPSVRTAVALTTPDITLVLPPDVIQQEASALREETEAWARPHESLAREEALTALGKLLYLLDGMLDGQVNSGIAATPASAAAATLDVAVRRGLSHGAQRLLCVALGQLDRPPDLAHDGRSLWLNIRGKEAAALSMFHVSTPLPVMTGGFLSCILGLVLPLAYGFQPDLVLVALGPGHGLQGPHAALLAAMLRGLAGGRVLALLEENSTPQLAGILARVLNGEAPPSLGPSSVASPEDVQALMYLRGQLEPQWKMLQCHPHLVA

Nc1cc(F)ccc1NC(=O)c1ccc(CNC(=O)/C=C/c2cccnc2)cc1 [Chidamide, reference compound]
IC50 [1]: > 30 µM

O=C(CCCCCCC(=O)Nc1ccccc1)NO [Vorinostat, reference compound]
Cavg, u [2]: 0.132* uM
